12 compounds from PubChem BioAssay (NCI) can be followed below.

Among the test systems are A498 renal; HCT-116 colon; NCI-H522 lung; NCI-H23 lung; SK-MEL-28 melanoma; TK-10 renal; UO-31 renal; MDA-MB-231 breast; MALME-3M melanoma; EKVX NSCLC.
Holding throughout (experiment): NCI anticancer screen, dose series, 48 h

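Growth conditions: 96-well plates. Treatment: test compound, 48 hours, 5 concentrations. Analysis: linear interpolation between bracketing concentrations; unreached endpoints set to highest concentration. GI50 marks 50% less growth. Definition used: TGI = concentration required for complete inhibition of growth.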

`S=C(Nc1ccc(Cl)cc1)Nc1ccc(Cl)cc1` (tested in a mixture with another compound): the GI50 with A498 renal is 1.62 µM; with HCT-116 colon, 1.46 µM; in the assay with NCI-H522 lung, 1.39 µM; with NCI-H23 lung, 1.87 µM; with SK-MEL-28 melanoma, 3.46 µM; in the assay with TK-10 renal, 2.24 µM. Moreover, the GI50 with UO-31 renal is 2.26 µM; in the assay on MDA-MB-231 breast, 1.86 µM; in the assay with MALME-3M melanoma, 2.55 µM; in the assay on EKVX NSCLC, 2.25 µM. For the same compound, the TGI was 6.56 µM with A498 renal; 3.07 µM in the assay on HCT-116 colon; 4.37 µM in the assay with NCI-H522 lung; 6.05 µM in the assay on NCI-H23 lung; 25.5 µM with SK-MEL-28 melanoma; 5.9 µM in the assay with TK-10 renal. The TGI in the assay with UO-31 renal is 34.9 µM; in the assay with MDA-MB-231 breast, 3.68 µM; in the assay on MALME-3M melanoma, over 100 µM; in the assay with EKVX NSCLC, over 100 µM.
`CC1(C)COC(/C=C/C2=NC(C)(C)CO2)=N1`: the TGI with A498 renal was 25.4 µM; in the assay with HCT-116 colon, 25.9 µM; in the assay on NCI-H522 lung, 13.4 µM; with NCI-H23 lung, 58.1 µM; with SK-MEL-28 melanoma, 38.1 µM; in the assay on TK-10 renal it was 27.2 µM. The TGI in the assay with UO-31 renal is 64.3 µM; with MDA-MB-231 breast, 44.2 µM; with MALME-3M melanoma, 41.9 µM; with EKVX NSCLC, 41.8 µM.
As for `O=C(/C=C/c1ccc(O)cc1)NCCc1ccc(O)cc1`, the TGI with A498 renal, in the assay with HCT-116 colon, in the assay with NCI-H522 lung, in the assay on NCI-H23 lung, in the assay with SK-MEL-28 melanoma and in the assay on TK-10 renal was over 12.5 µM throughout. Further, the TGI in the assay on UO-31 renal, with MDA-MB-231 breast, in the assay on MALME-3M melanoma and in the assay with EKVX NSCLC was over 12.5 µM in each case.
Take `C[N+]1(C)CCC(C#N)(c2ccccc2)CC1`: the TGI in the assay on A498 renal, in the assay on HCT-116 colon, in the assay with NCI-H23 lung, in the assay on SK-MEL-28 melanoma, in the assay with TK-10 renal and with UO-31 renal was over 100 µM in each case. The TGI with MALME-3M melanoma and in the assay on EKVX NSCLC was over 100 µM each time.
For `CC(O)C(O)C(N)CC=O` (stereo not drawn), the TGI with A498 renal was over 50 µM; in the assay on HCT-116 colon, over 500 µM; in the assay on NCI-H522 lung, over 500 µM; with NCI-H23 lung, over 500 µM; in the assay on SK-MEL-28 melanoma, over 500 µM; in the assay on UO-31 renal, over 500 µM. In addition, the TGI in the assay on MALME-3M melanoma and in the assay with EKVX NSCLC was over 500 µM each time.
On to `CCOC(=O)n1cncc1CC(NC(=O)Cc1c(C(=O)C=C(C)C)[nH]c2ccccc12)C(=O)OC` (stereo not drawn), for which the TGI with A498 renal was 41.1 µM; in the assay on HCT-116 colon it was over 100 µM; with NCI-H522 lung, 15.2 µM; in the assay with NCI-H23 lung, 68.2 µM; in the assay with SK-MEL-28 melanoma it was 32.8 µM; with TK-10 renal, 34.2 µM. The TGI in the assay with UO-31 renal came out at 32.3 µM; with MDA-MB-231 breast, 36.1 µM; in the assay with MALME-3M melanoma it was 32.8 µM; in the assay with EKVX NSCLC it was 33.9 µM.
With `O=C1/C(=C\c2ccc(-c3ccc(Cl)cc3Cl)o2)SC2N=C(COc3ccc(Cl)cc3)NN12` (stereo not drawn), the TGI is 5.98 µM in the assay on A498 renal; over 100 µM in the assay with HCT-116 colon; over 100 µM with NCI-H522 lung; over 100 µM with NCI-H23 lung; over 100 µM in the assay on SK-MEL-28 melanoma; 18.3 µM in the assay with TK-10 renal. The TGI in the assay with UO-31 renal is over 100 µM; in the assay with MDA-MB-231 breast it was over 100 µM; in the assay on MALME-3M melanoma, over 100 µM; with EKVX NSCLC it was 86.5 µM.
Turning to `COC(=O)C1=CC[C@@H]2C(C(=O)O)=CO[C@@H](OC3OC(CO)C(O)C(O)C3O)[C@H]12` (stereo partly drawn), the TGI with A498 renal was over 30 µM; with HCT-116 colon it was over 300 µM; in the assay with NCI-H522 lung it was over 300 µM; with NCI-H23 lung, over 300 µM; in the assay with SK-MEL-28 melanoma, over 300 µM; with UO-31 renal, over 300 µM. The TGI with MALME-3M melanoma and in the assay with EKVX NSCLC was over 300 µM throughout.
As to `CC(C)C(N=Cc1ccccc1O)C(=O)O` (stereo not drawn), the TGI in the assay with A498 renal, in the assay on HCT-116 colon, in the assay on NCI-H522 lung, in the assay with NCI-H23 lung, with SK-MEL-28 melanoma and with TK-10 renal was over 100 µM in each case. Also, the TGI in the assay on UO-31 renal, with MDA-MB-231 breast, in the assay on MALME-3M melanoma and in the assay on EKVX NSCLC was over 100 µM in each case.
With `O=S(O)c1cc(Cl)cc(Cl)c1O`, the TGI with A498 renal, in the assay with HCT-116 colon, in the assay with NCI-H522 lung, with NCI-H23 lung, in the assay on SK-MEL-28 melanoma and with TK-10 renal was over 100 µM in each case. The TGI with UO-31 renal, with MALME-3M melanoma and with EKVX NSCLC was over 100 µM throughout.
Consider `N#C/C=C1\C=CC(O)C(O)C1OC1OC(CO)C(O)C(O)C1O` (stereo not drawn), for which the TGI in the assay on A498 renal, with HCT-116 colon, with NCI-H522 lung, with NCI-H23 lung, in the assay with SK-MEL-28 melanoma and in the assay with TK-10 renal was over 100 µM in each case. In addition, the TGI in the assay with UO-31 renal, in the assay with MDA-MB-231 breast, in the assay on MALME-3M melanoma and in the assay on EKVX NSCLC was over 100 µM each time.
In the case of `CC(=O)OCC1OC(O[C@@H]2c3c(O)c4c(c(O)c3C3=C(NN(c5ccc([N+](=O)[O-])cc5[N+](=O)[O-])[Se]3=O)[C@@]2(C)O)C(=O)c2ccccc2C4=O)C(OC(C)=O)C(OC(C)=O)C1OC(C)=O` (stereo partly drawn), the TGI in the assay on A498 renal was determined as 1.11 µM; with HCT-116 colon, 0.295 µM; with NCI-H522 lung, 0.29 µM; in the assay with NCI-H23 lung it was 0.698 µM; in the assay with SK-MEL-28 melanoma, 1.02 µM; with TK-10 renal it was 2.05 µM. For the same compound, the TGI in the assay on UO-31 renal was determined as 0.548 µM; in the assay with MDA-MB-231 breast, 1.48 µM; in the assay on MALME-3M melanoma, 0.355 µM; in the assay with EKVX NSCLC, 0.677 µM.
